Measured values as given in paper PMC11173485, “Connecting GSK-3β Inhibitory Activity with IKK-β or ROCK-1 Inhibition to Target Tau Aggregation and Neuroinflammation in Alzheimer’s Disease—Discovery, In Vitro and In Cellulo Activity of Thiazole-Based Inhibitors” (Molecules, 2024).

What was measured:
IKK-β [1] = biological target: T1, IKK-β (Homo sapiens, UniProt O14920); assay: ADP-Glo kinase assay, IKK-β inhibition; assay type: biochemical; conditions: for inhibition at 10 µM: mean ± SD, read-out: % inh. at 10 µM IKK-β; for IC50: mean ± SEM, ATP 25 µM
T1 construct: purchased Promega
T1 sequence (O14920 1-756): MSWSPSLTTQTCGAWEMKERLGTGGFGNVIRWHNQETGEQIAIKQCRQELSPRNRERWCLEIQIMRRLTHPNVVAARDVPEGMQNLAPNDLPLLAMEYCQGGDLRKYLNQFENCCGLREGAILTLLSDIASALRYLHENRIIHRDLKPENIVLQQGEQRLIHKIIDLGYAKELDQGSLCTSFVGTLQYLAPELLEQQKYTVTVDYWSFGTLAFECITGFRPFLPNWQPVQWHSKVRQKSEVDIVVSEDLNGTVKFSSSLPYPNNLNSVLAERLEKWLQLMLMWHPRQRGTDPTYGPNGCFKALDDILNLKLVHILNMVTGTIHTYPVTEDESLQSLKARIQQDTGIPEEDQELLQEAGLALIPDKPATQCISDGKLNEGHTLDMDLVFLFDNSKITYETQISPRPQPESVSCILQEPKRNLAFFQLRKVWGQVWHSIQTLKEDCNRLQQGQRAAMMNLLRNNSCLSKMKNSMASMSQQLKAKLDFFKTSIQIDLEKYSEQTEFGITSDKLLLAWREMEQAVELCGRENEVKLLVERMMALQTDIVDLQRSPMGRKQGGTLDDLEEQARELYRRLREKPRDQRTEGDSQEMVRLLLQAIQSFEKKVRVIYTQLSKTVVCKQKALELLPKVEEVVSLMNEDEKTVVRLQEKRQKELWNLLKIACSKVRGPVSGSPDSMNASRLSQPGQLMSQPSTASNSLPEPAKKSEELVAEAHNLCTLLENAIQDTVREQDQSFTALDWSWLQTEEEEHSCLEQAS
Description: (§1) We evaluated the inhibitory activity of the final compounds against GSK-3β, IKK-β, and ROCK-1 kinases using the commercially available ADP-Glo™ kinase assay. The method was based on the measurement of luminescence that correlates with kinase activity. […] The latter are inhibitors of the kinases of interest and were integral to the design of our studies.
(§2) Promega’s Kinase Enzyme Systems (Promega; Madison, WI, USA) were used to determine the activities of the tested compounds against the human recombinant kinases GSK-3β, IKK- β, and ROCK-1. The assays were performed according to the provided manufacturer’s instruction, based on the optimized conditions of the enzymatic reactions, using the low-volume, white polystyrene, 384-well plates. The ADP-Glo™ Assay (Promega; Madison, WI, USA) was used for bioluminescent detection of the kinase activity. Stock solutions of the tested compounds in DMSO (1mM) were diluted with the Kinase Assay Buffer before use (40 mM Tris, pH 7.5, enriched with 50 µM dithiothreitol; DTT), giving the final desired concentrations. The kinase enzymes, substrates, and ATP solutions were also diluted with the assay buffer prior to use. The GSK-3β, IKK-β, and ROCK-1 substrates were derived from human muscle glycogen synthase 1, human IkBA, and human 40S ribosomal protein S6, respectively. The assay procedure was as follows: At first, the appropriate kinase enzyme (GSK-3β: 10 ng per well; IKK-β: 45 ng per well; ROCK-1: 24 ng per well) was incubated with the tested sample (10 µM in well) for 5 min. The DMSO solution (1% in well) was used in the blank samples instead of the tested inhibitors. After the incubation period, ATP (25 µM per well in the case of GSK-3β and IKK-β kinases; 5 µM per well in the case of ROCK-1 kinase) and an appropriate enzyme substrate (0.2 µg/µL in well) were added to start the enzymatic reaction. The reaction mixture was kept at room temperature for 1 h; then, the ADP-Glo™ reagent was added, to terminate the kinase reaction and deplete any remaining ATP. After 40 min, a second reagent (Kinase Detection Reagent) was applied to convert the obtained ADP to ATP and to generate light from the newly synthesized ATP using a luciferase/luciferin reaction. The mixture was incubated for another 30 min at room temperature before the luminescence was measured. The calculations of the percent of kinases’ inhibition by tested compounds were based on the equation 100 − (S/B) × 100; S and B are the enzyme activities with and without the tested sample, respectively. […] Each compound was evaluated in two independent experiments, with every data point collected in duplicate.

GSK-3β = GSK-3β (Homo sapiens, UniProt P49841); assay: ADP-Glo kinase assay, GSK-3β inhibition; assay type: biochemical; design: purchased Promega; conditions: for IC50: mean ± SEM, ATP 25 µM; for inhibition at 10 µM: mean ± SD, read-out: % inh. at 10 µM GSK-3β
Chain of GSK-3β (P49841 whole entry): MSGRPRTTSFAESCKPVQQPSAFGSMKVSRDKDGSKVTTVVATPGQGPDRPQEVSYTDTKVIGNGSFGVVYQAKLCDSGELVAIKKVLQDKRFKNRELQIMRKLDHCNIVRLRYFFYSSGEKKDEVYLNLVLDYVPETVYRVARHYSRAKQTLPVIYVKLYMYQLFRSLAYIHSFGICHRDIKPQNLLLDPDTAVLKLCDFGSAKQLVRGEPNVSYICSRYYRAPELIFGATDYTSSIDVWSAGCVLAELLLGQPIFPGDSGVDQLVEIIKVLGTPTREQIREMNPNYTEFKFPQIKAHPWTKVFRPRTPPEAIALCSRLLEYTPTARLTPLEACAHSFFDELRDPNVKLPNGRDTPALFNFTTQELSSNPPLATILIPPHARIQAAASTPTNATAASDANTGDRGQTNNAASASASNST
Description: as §1, §2

ROCK-1 [2] = biological target: T2, ROCK-1 (Homo sapiens, UniProt Q13464); assay: ADP-Glo kinase assay, ROCK-1 inhibition; assay type: biochemical; conditions: for IC50: mean ± SEM, ATP 5 µM; for inhibition at 10 µM: mean ± SD, read-out: % inh. at 10 µM ROCK-1
T2 construct: purchased Promega
T2 sequence (Q13464 whole entry): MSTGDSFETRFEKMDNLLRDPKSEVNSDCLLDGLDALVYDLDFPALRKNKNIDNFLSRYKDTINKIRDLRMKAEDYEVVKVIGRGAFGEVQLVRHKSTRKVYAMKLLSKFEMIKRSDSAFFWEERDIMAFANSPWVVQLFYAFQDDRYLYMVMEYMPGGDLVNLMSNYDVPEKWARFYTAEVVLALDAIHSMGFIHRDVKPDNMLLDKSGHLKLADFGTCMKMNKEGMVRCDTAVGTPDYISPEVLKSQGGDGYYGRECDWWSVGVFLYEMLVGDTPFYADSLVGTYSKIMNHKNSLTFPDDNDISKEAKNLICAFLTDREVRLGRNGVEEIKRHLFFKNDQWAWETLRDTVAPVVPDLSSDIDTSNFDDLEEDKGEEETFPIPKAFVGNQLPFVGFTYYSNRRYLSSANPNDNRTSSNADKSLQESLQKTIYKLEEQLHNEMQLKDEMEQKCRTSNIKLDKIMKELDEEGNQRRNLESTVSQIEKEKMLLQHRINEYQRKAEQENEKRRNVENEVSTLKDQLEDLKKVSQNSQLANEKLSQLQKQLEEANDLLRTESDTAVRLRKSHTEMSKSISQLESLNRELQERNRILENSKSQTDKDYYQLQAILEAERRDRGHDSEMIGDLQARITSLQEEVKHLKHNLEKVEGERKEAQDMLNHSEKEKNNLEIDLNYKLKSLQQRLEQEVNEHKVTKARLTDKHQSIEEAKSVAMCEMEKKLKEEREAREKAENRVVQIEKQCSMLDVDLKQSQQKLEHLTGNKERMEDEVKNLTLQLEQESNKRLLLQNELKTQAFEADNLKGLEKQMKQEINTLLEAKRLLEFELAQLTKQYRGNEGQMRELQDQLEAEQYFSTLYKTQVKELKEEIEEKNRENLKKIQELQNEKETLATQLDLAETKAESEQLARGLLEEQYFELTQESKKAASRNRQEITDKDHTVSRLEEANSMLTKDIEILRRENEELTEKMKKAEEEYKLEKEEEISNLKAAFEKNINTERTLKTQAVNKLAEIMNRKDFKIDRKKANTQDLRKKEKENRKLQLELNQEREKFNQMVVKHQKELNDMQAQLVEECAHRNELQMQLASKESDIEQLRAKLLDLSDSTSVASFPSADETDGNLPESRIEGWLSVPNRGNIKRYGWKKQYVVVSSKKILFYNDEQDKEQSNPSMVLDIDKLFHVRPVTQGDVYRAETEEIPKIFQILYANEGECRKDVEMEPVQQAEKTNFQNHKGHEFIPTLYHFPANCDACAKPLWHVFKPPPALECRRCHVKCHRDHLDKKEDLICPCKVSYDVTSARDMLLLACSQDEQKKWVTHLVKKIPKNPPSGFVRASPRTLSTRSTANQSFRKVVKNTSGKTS
Description: as §1
Promega’s Kinase Enzyme Systems (Promega; Madison, WI, USA) were used to determine the activities of the tested compounds against the human recombinant kinases GSK-3β, IKK- β, and ROCK-1. The assays were performed according to the provided manufacturer’s instruction, based on the optimized conditions of the enzymatic reactions, using the low-volume, white polystyrene, 384-well plates. The ADP-Glo™ Assay (Promega; Madison, WI, USA) was used for bioluminescent detection of the kinase activity. Stock solutions of the tested compounds in DMSO (1mM) were diluted with the Kinase Assay Buffer before use (40 mM Tris, pH 7.5, enriched with 50 µM dithiothreitol; DTT), giving the final desired concentrations. The kinase enzymes, substrates, and ATP solutions were also diluted with the assay buffer prior to use. The GSK-3β, IKK-β, and ROCK-1 substrates were derived from human muscle glycogen synthase 1, human IkBA, and human 40S ribosomal protein S6, respectively. […] The DMSO solution (1% in well) was used in the blank samples instead of the tested inhibitors. After the incubation period, ATP (25 µM per well in the case of GSK-3β and IKK-β kinases; 5 µM per well in the case of ROCK-1 kinase) and an appropriate enzyme substrate (0.2 µg/µL in well) were added to start the enzymatic reaction. The reaction mixture was kept at room temperature for 1 h; then, the ADP-Glo™ reagent was added, to terminate the kinase reaction and deplete any remaining ATP. After 40 min, a second reagent (Kinase Detection Reagent) was applied to convert the obtained ADP to ATP and to generate light from the newly synthesized ATP using a luciferase/luciferin reaction. The mixture was incubated for another 30 min at room temperature before the luminescence was measured. The calculations of the percent of kinases’ inhibition by tested compounds were based on the equation 100 − (S/B) × 100; S and B are the enzyme activities with and without the tested sample, respectively. […]. IC50 results were obtained using nonlinear regression (GraphPad Prism 9; GraphPad Software, San Diego, CA, USA) by plotting the residual enzyme activities against the applied inhibitor concentration. Each compound was evaluated in two independent experiments, with every data point collected in duplicate.

ROCK-1 [3] = system: ROCK-1; design: method as in PMID 28284870; conditions: Figure 1; cited from earlier work
IKK-β [4] = system: IKK-β; design: method as in PMID 15125939; conditions: Figure 1; cited from earlier work

Structure (SMILES)	inhibition at 10 µM (IKK-β [1]) [%]	IC50 (GSK-3β) [nM]	IC50 (ROCK-1 [2]) [nM]	IC50 (ROCK-1 [3]) [nM]	inhibition at 10 µM (ROCK-1 [2]) [%]	inhibition at 10 µM (GSK-3β) [%]	IC50 (IKK-β [1]) [nM]	IC50 (IKK-β [4]) [nM]
NC(=O)Nc1cc(-c2ccnc(NC(=O)C3CCCCC3)c2)sc1C(N)=O [Compound 51, 5-(2-(Cyclohexanecarboxamido)pyridin-4-yl)-3-ureidothiophene-2-carboxamide]	< 10	614 ± 26						
CC1(C)NC(=O)c2sc(-c3ccncc3)cc2N1 [I, reference compound]	46	161 ± 2	119 ± 6	90				
CC1(C)NC(=O)c2sc(-c3cccc(S(=O)(=O)N4CCCCC4)c3)cc2N1 [Compound 57, 2,2-Dimethyl-6-(3-(piperidin-1-ylsulfonyl)phenyl)-2,3-dihydrothieno [3,2-d]pyrimidin-4(1H)-one]	17				< 10	< 10		
NC(=O)Nc1cc(-c2ccc(F)cc2)sc1C(N)=O [III, reference compound]						47	405 ± 9	63
CC1(C)NC(=O)c2sc(-c3ccnc(NC(=O)c4ccccc4)c3)cc2N1 [Compound 43, N-(4-(2,2-Dimethyl-4-oxo-1,2,3,4-tetrahydrothieno [3,2-d]pyrimidin-6-yl)pyridin-2-yl)benzamide]	38	1310 ± 42	3740 ± 217					
NC(=O)Nc1cc(-c2ccnc(NC(=O)c3ccccc3)c2)sc1C(N)=O [Compound 52, 5-(2-Benzamidopyridin-4-yl)-3-ureidothiophene-2-carboxamide]	30	398 ± 12			15			
CC(=O)Nc1cc(-c2cc(NC(N)=O)c(C(N)=O)s2)ccn1 [Compound 47, 5-(2-Acetamidopyridin-4-yl)-3-ureidothiophene-2-carboxamide]	17					34		
CCS(=O)(=O)Nc1cc(-c2cc3c(s2)C(=O)NC(C)(C)N3)ccn1 [Compound 45, N-(4-(2,2-Dimethyl-4-oxo-1,2,3,4-tetrahydrothieno [3,2-d]pyrimidin-6-yl)pyridin-2-yl)-ethanesulfonamide]	< 10				< 10	40		
CC1(C)NC(=O)c2sc(-c3ccnc(NS(C)(=O)=O)c3)cc2N1 [Compound 44, N-(4-(2,2-Dimethyl-4-oxo-1,2,3,4-tetrahydrothieno [3,2-d]pyrimidin-6-yl)pyridin-2-yl)-methanesulfonamide]	< 10				< 10	32		
CC(=O)Nc1cc(-c2cc3c(s2)C(=O)NC(C)(C)N3)ccn1 [Compound 38, N-(4-(2,2-Dimethyl-4-oxo-1,2,3,4-tetrahydrothieno [3,2-d]pyrimidin-6-yl)pyridin-2-yl)acetamide]		1130 ± 43			50		6520 ± 281	
NC(=O)Nc1cc(-c2ccc(F)c(NC(=O)C3CC3)c2)sc1C(N)=O [Compound 59, 5-(3-(Cyclopropanecarboxamido)-4-fluorophenyl)-3-ureidothiophene-2-carboxamide]		1850 ± 38			< 10		7620 ± 695	
CC1(C)NC(=O)c2sc(-c3cccc(NS(=O)(=O)C4CCCCC4)c3)cc2N1 [Compound 56, N-(3-(2,2-Dimethyl-4-oxo-1,2,3,4-tetrahydrothieno [3,2-d]pyrimidin-6-yl)phenyl)cyclohexanesulfonamide]	< 10				33	< 10		
O=C1NC2(CCCO2)Nc2cc(-c3ccnc(NC(=O)C4CC4)c3)sc21 (stereo not shown) [Compound 61, N-(4-(4′-Oxo-3′,4,4′,5-tetrahydro-1′H,3H-spiro[furan-2,2′-thieno [3,2-d]pyrimidin]-6′-yl)pyridin-2-yl)cyclopropanecarboxamide]	< 10	12			40			
CCS(=O)(=O)Nc1cccc(-c2cc3c(s2)C(=O)NC(C)(C)N3)c1 [Compound 55, N-(3-(2,2-Dimethyl-4-oxo-1,2,3,4-tetrahydrothieno [3,2-d]pyrimidin-6-yl)phenyl)ethanesulfonamide]	16				< 10	11		
CC1(C)NC(=O)c2sc(-c3ccnc(NC(=O)C4CCCCC4)c3)cc2N1 [Compound 42, N-(4-(2,2-Dimethyl-4-oxo-1,2,3,4-tetrahydrothieno [3,2-d]pyrimidin-6-yl)pyridin-2-yl)-cyclohexanecarboxamide]	18	830 ± 30			30			
CC1(C)NC(=O)c2sc(-c3ccc(F)c(NC(=O)C4CC4)c3)cc2N1 [Compound 54, N-(5-(2,2-Dimethyl-4-oxo-1,2,3,4-tetrahydrothieno [3,2-d]pyrimidin-6-yl)-2-fluorophenyl)-cyclopropanecarboxamide]	10	453 ± 13						
CC1(C)NC(=O)c2sc(-c3cccc(NC(=O)C4CC4)c3)cc2N1 [Compound 53, N-(3-(2,2-Dimethyl-4-oxo-1,2,3,4-tetrahydrothieno [3,2-d]pyrimidin-6-yl)phenyl)cyclopropanecarboxamide]	< 10				< 10	47		
CC1(C)NC(=O)c2sc(-c3ccnc(NCC4CC4)c3)cc2N1 [Compound 46, 6-(2-((Cyclopropylmethyl)amino)pyridin-4-yl)-2,2-dimethyl-2,3-dihydrothieno [3,2-d]pyrimidin-4(1H)-one]	41		1730 ± 78			39		
